Literature values in patent publication US12611399B2, “Movement disorders” (Definium Therapeutics US, Inc., priority 2021, dated 2026).

Tests used:
Conditions in all cases: result in words
D1-3 receptors = test system: D1-3 receptors
5-HT transporter (SERT) = 5-HT transporter (SERT) (Homo sapiens, UniProt P31645)
[1] = test system: serotonin 5-HT1 receptors
5-HT2A receptor = 5-HT2A receptor (Homo sapiens, UniProt P28223)
D2 receptors = D2 receptors (Homo sapiens, UniProt P14416)
Sequence of D2 receptors (P14416 whole entry): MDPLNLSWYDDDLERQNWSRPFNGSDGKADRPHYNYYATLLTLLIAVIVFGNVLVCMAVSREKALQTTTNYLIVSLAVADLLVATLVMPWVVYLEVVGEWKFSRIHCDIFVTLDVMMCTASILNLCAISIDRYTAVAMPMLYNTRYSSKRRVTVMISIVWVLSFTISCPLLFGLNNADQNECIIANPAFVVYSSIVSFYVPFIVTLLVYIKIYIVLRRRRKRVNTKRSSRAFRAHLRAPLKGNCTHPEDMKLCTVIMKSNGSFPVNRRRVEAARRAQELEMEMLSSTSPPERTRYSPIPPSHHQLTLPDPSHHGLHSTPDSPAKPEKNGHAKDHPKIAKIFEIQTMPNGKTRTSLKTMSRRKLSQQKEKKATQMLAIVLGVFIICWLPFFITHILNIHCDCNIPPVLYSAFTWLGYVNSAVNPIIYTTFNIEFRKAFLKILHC

Sequence of 5-HT transporter (SERT) (P31645 whole entry, species assumed): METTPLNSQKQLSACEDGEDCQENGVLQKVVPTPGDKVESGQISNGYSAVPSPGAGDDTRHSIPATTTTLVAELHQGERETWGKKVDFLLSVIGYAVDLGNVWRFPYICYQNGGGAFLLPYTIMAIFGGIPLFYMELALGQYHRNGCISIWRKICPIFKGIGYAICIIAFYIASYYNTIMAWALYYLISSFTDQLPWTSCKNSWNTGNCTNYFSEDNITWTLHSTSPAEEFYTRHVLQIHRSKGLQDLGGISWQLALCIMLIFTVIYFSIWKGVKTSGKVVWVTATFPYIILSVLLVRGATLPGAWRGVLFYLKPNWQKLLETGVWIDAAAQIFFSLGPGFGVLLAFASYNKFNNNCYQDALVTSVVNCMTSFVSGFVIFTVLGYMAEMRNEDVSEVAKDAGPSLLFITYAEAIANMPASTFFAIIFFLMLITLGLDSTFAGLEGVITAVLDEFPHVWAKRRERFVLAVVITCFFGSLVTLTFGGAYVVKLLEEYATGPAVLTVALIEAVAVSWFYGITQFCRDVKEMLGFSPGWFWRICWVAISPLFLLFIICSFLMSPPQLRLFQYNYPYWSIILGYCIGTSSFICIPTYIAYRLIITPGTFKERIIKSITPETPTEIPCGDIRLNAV
Sequence of 5-HT2A receptor (P28223 whole entry): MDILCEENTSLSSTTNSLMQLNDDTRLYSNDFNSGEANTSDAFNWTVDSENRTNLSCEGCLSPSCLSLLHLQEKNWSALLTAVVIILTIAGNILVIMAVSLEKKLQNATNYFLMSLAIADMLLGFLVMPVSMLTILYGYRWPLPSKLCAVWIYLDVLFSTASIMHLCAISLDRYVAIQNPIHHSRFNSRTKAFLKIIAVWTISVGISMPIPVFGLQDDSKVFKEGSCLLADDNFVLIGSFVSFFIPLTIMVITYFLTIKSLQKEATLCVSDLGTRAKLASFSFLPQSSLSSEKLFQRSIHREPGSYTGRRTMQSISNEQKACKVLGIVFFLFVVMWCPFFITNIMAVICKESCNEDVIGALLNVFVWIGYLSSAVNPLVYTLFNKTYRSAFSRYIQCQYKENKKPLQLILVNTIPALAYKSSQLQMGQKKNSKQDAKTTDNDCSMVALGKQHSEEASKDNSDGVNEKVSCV

Row | Compound | stimulation of D1-3 receptors (D1-3 receptors) | interaction with the 5-HT transporter (SERT) (5-HT transporter (SERT)) | agonist potency at serotonin 5-HT1 receptors [1] | stimulation of the 5-HT2A receptor (5-HT2A receptor) | affinity for D2 receptors (D2 receptors)
1 | CCN(CC)C(=O)[C@@H]1C=C2c3cccc4[nH]cc(c34)C[C@H]2N(C)C1 [LSD, lysergic acid diethylamide] | stimulates | does not interact | potent agoinsts | potently stimulates | –
2 | COc1cc(CCN)cc(OC)c1OC [mescaline] | – | – | low potency | – | no affinity
3 | CN(C)CCc1c[nH]c2cccc(O)c12 [psilocin] | – | inhibits | potent agoinsts | – | –
